What is called koff is a measure of how fast the partners let go of each other. One may read the Kd as the free concentration of one partner at which half of the binding sites on the other are occupied at equilibrium, for simple one-to-one binding.

The record followed here is article PMC7363588, “Mapping of the FGF14:Nav1.6 complex interface reveals FLPK as a functionally active peptide modulating excitability” (Physiological Reports, 2020).

Entries after “also recorded” stand apart in the source; their conditions may differ. Peptide text beside a SMILES is read from it.

For assay [1], the system named is FGF14^Y158N/V160N:Nav1.6 complex. Briefly: LCA, CLuc-FGF14^Y158N/V160N. Type of assay: cell-based, human. The note with it: 50 µM peptide, 12 hr, HEK293, vs DMSO.
Assay [2] concerns the target T1, FGF14 (Homo sapiens, UniProt Q92915).
T1 construct: aa 64–252); 6X His (N); made in house; host or cells: E. coli BL21 (DE3) pLys
T1 sequence (Q92915 64-252 isoform Q92915-2): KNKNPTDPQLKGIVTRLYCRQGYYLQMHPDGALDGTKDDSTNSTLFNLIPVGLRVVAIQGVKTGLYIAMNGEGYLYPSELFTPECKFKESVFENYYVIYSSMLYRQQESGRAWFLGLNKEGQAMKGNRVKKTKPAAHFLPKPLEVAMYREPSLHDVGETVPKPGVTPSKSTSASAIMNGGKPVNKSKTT
Description: SPR binding to FGF14. The note with it: for binding to FGF14: SPR. The source says:
Plasmids used in this study derived from the following clones: human FGF14‐1b isoform (accession number: NM_175929.2) and human Nav1.6 (accession number: NM_014191.3). The CLuc‐FGF14, CD4‐Nav1.6‐NLuc, constructs and the pcDNA3.1 vector (Invitrogen, Carlsbad, CA) were engineered and characterized as previously described (Goetz et al., 2009; Shavkunov et al., 2012,2013,2015; Ali et al., 2016, 2018; Wadsworth et al., 2019). The plasmid pGL3 expressing full length Firefly (Photinus pyralis) luciferase was a gift from Dr. P. Sarkar (Department of Neurology, UTMB). For protein purification studies, cDNAs encoding FGF14‐1b (accession number NP_787125; aa 64–252) or the C‐terminal tail of Nav1.6 (accession number #NP_001171455; aa 1756–1939) were subcloned into suitable pET bacterial expression vectors (pET28a‐FGF14; pET30a‐Nav1.6) with a 6X His‐tag at the N‐terminal site; these plasmids were a gift of Dr. Moosa Mohammadi (NYU, Langone Medical Center). The mutation coding for FGF14^V160A was generated by site‐directed mutagenesis and PCR using FGF14‐1b as a template described previously (Ali et al., 2016). For electrophysiological studies FGF14‐GFP (human) and FGF14‐ΔNT‐GFP (human) were cloned into the GFP plasmid (pQBI‐fC2; Quantum Biotechnology Inc., Montreal, Canada) as previously described.
Upon transformation with corresponding cDNA clones, the recombinant proteins FGF14, FGF14^V160A and Nav1.6 C‐terminal tail were expressed in E. coli BL21 (DE3) pLys (Invitrogen) after induction with 0.1 mM isopropyl thio‐β‐D‐galacto‐pyranoside (IPTG) for 24 hr at 16°C. After induction with IPTG, bacterial cells were harvested and lysed by sonication at 4°C in lysis/binding buffer containing following components (mM): sodium phosphate 10 (prepared from 0.5 M of Na2HPO4 and NaH2PO4) + 3‐cholamidopropyl dimethylammonio 1‐propanesulfonate 0.1% pH 7.0 (for FGF14 proteins) + HEPES 25 + NaCl 150 + glycerol 10% (Nav1.6) pH 7.5 and containing 0.1 mM phenyl methyl sulphonyl fluoride (PMSF). The respective proteins were centrifuged at 18,000 g for 30 min at 4°C. For purification of FGF14 and FGF14^V160A, the supernatant was applied to preequilibrated heparin and the proteins were then eluted with NaCl 0.2–2.0 M in the elution (sodium phosphate 10 mM + NaCl 0.2–2.0 M pH 7.0) buffer. For purification of the Nav1.6 C‐tail, the supernatant was applied first to Ni^2+ NTA column and eluted with imidazole (200 mM). The Nav1.6 C‐tail was further purified using HiTrap QFF‐sepharose column (GE Healthcare Bio‐Sciences, Pittsburgh, PA) with a buffer containing Tris‐HCl 50 mM and eluted with NaCl (10–500 mM) at pH 7.5. Finally, all concentrated proteins were purified on an AKTA FPLC purifier using Superdex 200 Hiload 16 × 60 columns (GE Healthcare Bio‐Sciences) and equilibrated in Tris‐HCl 50 mM + NaCl 150 mM, pH 7.5 (Ali et al., 2016; Scala et al., 2018).
SPR experiments were performed on a Biacore T100 (GE Healthcare Bio‐Sciences, Pittsburgh, PA), and the interaction of FGF14 and Nav1.6 channel toward FLPK, PLEV and EYYV (1–100 µM) were studied at 25°C. To analyze the effects of FLPK, PLEV and EYYV on FGF14^WT (RU 16,000), FGF14^V160A (RU 18,000) and Nav1.6 C‐tail (RU 12,000), the proteins were immobilized on CM5 sensor chip using Acetate 5.5 with Amine Coupling Kit (Biacore GE Healthcare Bio‐Sciences). No protein was coupled to the control flow channel of the chip. Using a flow rate of 50 µl/min, FLPK, PLEV and EYYV (1–100 µM) diluted in HBS‐P^+ buffer were injected over the chip for 180 s, followed by injection of HBS‐P+ for 180 s to monitor dissociation, and finally the chip surface was regenerated with NaCl (200 mM). For each peptide injection, nonspecific responses (buffer only) were subtracted from experimental sensograms/traces prior to data analysis. Maximal equilibrium responses were plotted against peptide concentrations and association rate constant (kon), dissociation rate constatnt (koff) were determined. […]
Background: Surface plasmon resonance follows binding to a sensor surface in real time, without labels.

The mark [3] stands for this setting: Biacore T100, CM5, 25°C, peptide 1–100 µM in HBS-P+ pH 7.4, FGF14 RU 16,000, N.M. = not measurable.

In the case of `CC(=O)N[C@@H](Cc1ccccc1)C(=O)N[C@@H](CC(C)C)C(=O)N1CCC[C@H]1C(=O)N[C@@H](CCCCN)C(N)=O` [FLPK] (Ac-FLPK-NH2), in assay [1], the “effect on FGF14^Y158N/V160N:Nav1.6 complex formation” value was “abolished the effect of FLPK; also recorded: similarly abolished”. Also, in assay [2] (Biacore T100, CM5, 25°C, peptide 1–100 µM in HBS-P+ pH 7.4, FGF14 RU 16,000, N.M. = not measurable, read-out: koff, dissociation rate constant), the koff is 0.000431 s⁻¹. Moreover, the Kd in assay [2] (Biacore T100, CM5, 25°C, peptide 1–100 µM, read-out: KD, equilibrium constant) is 4.97 µM. Also, the “binding to FGF14” value in assay [2] (peptide 1–100 µM) was “only FLPK exhibited measurable affinity”.

For “PLEV [tetrapeptide previously designed from FGF14:FGF14 dimer interface; docked with N-terminal acetylation and C-terminal amidation]”, the “effect on FGF14^Y158N/V160N:Nav1.6 complex formation” value in assay [1] is on record as “increased the inhibition”. Besides, in assay [2] (setting [3]), the “koff, dissociation rate constant” value is reported as “N.M” and the “kon, association rate constant” value was “N.M”. In addition, the “binding to FGF14” value in assay [2] (peptide 1–100 µM) is reported as “no appreciable affinity to either protein was detected”.

On to “EYYV [tetrapeptide previously designed from FGF14:FGF14 dimer interface; docked with N-terminal acetylation and C-terminal amidation]”, for which, in assay [2] (setting [3]), the “koff, dissociation rate constant” value is “N.M” and the “kon, association rate constant” value was “N.M”. For the same compound, in assay [2] (peptide 1–100 µM), the “binding to FGF14” value was “no appreciable affinity to either protein was detected”.
